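A five-concentration, 48-hour dose response in 96-well plates underlies each endpoint, interpolated linearly between surrounding concentrations. GI50 marks 50% less growth.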 Active and inactive are the calls of the source. Rule as the data show it: active = GI50 up to about 1.1 µM and inactive = higher.
Experiments:
Experiment in all cases: DTP human tumour cell line panel, 48 h
UO-31 = test system: UO-31
LOX IMVI = test system: LOX IMVI
MDA-MB-435 = test system: MDA-MB-435
HL-60 = test system: HL-60
CAKI-1 = test system: CAKI-1
EKVX = test system: EKVX
SK-MEL-28 = test system: SK-MEL-28
NCI-H460 = test system: NCI-H460
SF-268 = test system: SF-268
UACC-257 = test system: UACC-257
MDA-N = test system: MDA-N
SR = test system: SR
RPMI-8226 = test system: RPMI-8226
SK-MEL-5 = test system: SK-MEL-5
SNB-19 = test system: SNB-19
A549 = test system: A549
OVCAR-5 = test system: OVCAR-5
T47D = test system: T47D
KM12 = test system: KM12
SN12C = test system: SN12C

Row | SMILES | GI50 (UO-31) | GI50 (LOX IMVI) | GI50 (MDA-MB-435) | GI50 (HL-60) | GI50 (CAKI-1) | GI50 (EKVX) | GI50 (SK-MEL-28) | GI50 (NCI-H460) | GI50 (SF-268) | GI50 (UACC-257) | GI50 (MDA-N) | GI50 (SR) | GI50 (RPMI-8226) | GI50 (SK-MEL-5) | GI50 (SNB-19) | GI50 (A549) | GI50 (OVCAR-5) | GI50 (T47D) | GI50 (KM12) | GI50 (SN12C)
1 | CC(C)O/N=C/c1cc(NC(=S)OC(C)C)ccc1Cl | 21.7 µM (inactive) | 28.1 µM (inactive) | > 61.4 µM (inactive) | 20.4 µM (inactive) | 22.9 µM (inactive) | 19.1 µM (inactive) | > 62.2 µM (inactive) | 42.3 µM (inactive) | 36.1 µM (inactive) | > 100 µM (inactive) | > 69.5 µM (inactive) | 16.1 µM (inactive) | 13.8 µM (inactive) | 23 µM (inactive) | > 54.8 µM (inactive) | 35.4 µM (inactive) | 48.6 µM (inactive) | 34.3 µM (inactive) | 50.9 µM (inactive) | 31.6 µM (inactive)
2 | Cc1sc(NC=C2C(=O)CC(C)(C)CC2=O)nc1-c1ccccc1 | > 100 µM (inactive) | > 100 µM (inactive) | > 100 µM (inactive) | 2.17 µM (inactive) | > 100 µM (inactive) | > 100 µM (inactive) | > 100 µM (inactive) | > 100 µM (inactive) | > 100 µM (inactive) | > 100 µM (inactive) | > 100 µM (inactive) | > 100 µM (inactive) | > 100 µM (inactive) | > 100 µM (inactive) | > 100 µM (inactive) | > 100 µM (inactive) | > 100 µM (inactive) | > 100 µM (inactive) | > 100 µM (inactive) | > 100 µM (inactive)
3 | Cc1cc(=O)oc2c(CNC(Cc3ccccc3)C(=O)O)c(O)ccc12 (stereo not given) | 73.3 µM (inactive) | > 100 µM (inactive) | > 100 µM (inactive) | > 100 µM (inactive) | > 100 µM (inactive) | > 100 µM (inactive) | > 100 µM (inactive) | > 100 µM (inactive) | > 100 µM (inactive) | > 100 µM (inactive) | > 100 µM (inactive) | > 100 µM (inactive) | > 100 µM (inactive) | > 100 µM (inactive) | > 100 µM (inactive) | > 100 µM (inactive) | > 100 µM (inactive) | > 100 µM (inactive) | > 100 µM (inactive) | > 100 µM (inactive)
4 | Cc1nc2cccc([N+](=O)[O-])c2c(NCCCN(C)C)c1C | > 100 µM (inactive) | 84.9 µM (inactive) | 71.4 µM (inactive) | 11 µM (inactive) | 32.9 µM (inactive) | > 31.6 µM (inactive) | > 100 µM (inactive) | 24 µM (inactive) | > 77.3 µM (inactive) | 23 µM (inactive) | 26.7 µM (inactive) | > 34.5 µM (inactive) | 34.8 µM (inactive) | 35.6 µM (inactive) | > 100 µM (inactive) | 60.4 µM (inactive) | 27 µM (inactive) | > 100 µM (inactive) | 34.6 µM (inactive) | 11.5 µM (inactive)
5 | CCCCOC(=O)NC(Nc1cccc(C(F)(F)F)c1)(C(F)(F)F)C(F)(F)F | 46.5 µM (inactive) | 32.1 µM (inactive) | 33.8 µM (inactive) | 23.4 µM (inactive) | 49.2 µM (inactive) | 51.5 µM (inactive) | > 100 µM (inactive) | 32.7 µM (inactive) | 60 µM (inactive) | 84.9 µM (inactive) | 41.4 µM (inactive) | 23.1 µM (inactive) | 17.2 µM (inactive) | 49.9 µM (inactive) | > 100 µM (inactive) | 66.8 µM (inactive) | > 100 µM (inactive) | 13.5 µM (inactive) | 75.9 µM (inactive) | 68.7 µM (inactive)
6 | CCOC(=O)C(SCCO)C(C(=O)OCC)n1cc(C)c(=O)[nH]c1=O (stereo not given) | 22.9 µM (inactive) | 6.84 µM (inactive) | 14.3 µM (inactive) | 2.12 µM (inactive) | 4.44 µM (inactive) | 30.7 µM (inactive) | 19.4 µM (inactive) | 21.5 µM (inactive) | 29.3 µM (inactive) | 28.2 µM (inactive) | 15.1 µM (inactive) | 6.92 µM (inactive) | 7.89 µM (inactive) | 23.2 µM (inactive) | 62.1 µM (inactive) | 52.8 µM (inactive) | 15 µM (inactive) | 19.6 µM (inactive) | 25.8 µM (inactive) | 10.7 µM (inactive)
7 | COc1ccccc1C(O)[C@@H]1C[C@@H]2[C@H]3CC[C@@](C)([C@@H]2O1)C3(C)C (stereo not given in full) | 17.9 µM (inactive) | 18.4 µM (inactive) | 18.5 µM (inactive) | 20 µM (inactive) | 23.8 µM (inactive) | 45.2 µM (inactive) | 17.1 µM (inactive) | 19.5 µM (inactive) | 22.9 µM (inactive) | 20.3 µM (inactive) | 16.7 µM (inactive) | 20.6 µM (inactive) | 25.2 µM (inactive) | 17.3 µM (inactive) | 22.8 µM (inactive) | 21.2 µM (inactive) | 19.5 µM (inactive) | 16.4 µM (inactive) | 20.8 µM (inactive) | 16.4 µM (inactive)
8 | CC1(C)N=[N+]([O-])C1(C)C | > 100 µM (inactive) | > 100 µM (inactive) | > 100 µM (inactive) | > 100 µM (inactive) | > 100 µM (inactive) | > 100 µM (inactive) | > 100 µM (inactive) | > 100 µM (inactive) | > 100 µM (inactive) | > 100 µM (inactive) | > 100 µM (inactive) | > 100 µM (inactive) | > 100 µM (inactive) | > 100 µM (inactive) | > 100 µM (inactive) | > 100 µM (inactive) | > 100 µM (inactive) | > 100 µM (inactive) | > 100 µM (inactive) | > 100 µM (inactive)
9 | Cc1ccc(NC(c2ccccc2)P(=O)(c2ccccc2)c2ccccc2)cc1 (stereo not given) | > 100 µM (inactive) | > 100 µM (inactive) | > 100 µM (inactive) | 34 µM (inactive) | > 100 µM (inactive) | > 100 µM (inactive) | > 100 µM (inactive) | > 100 µM (inactive) | 71.3 µM (inactive) | > 100 µM (inactive) | > 100 µM (inactive) | 60.3 µM (inactive) | > 100 µM (inactive) | > 100 µM (inactive) | 53.7 µM (inactive) | > 100 µM (inactive) | > 100 µM (inactive) | > 100 µM (inactive) | > 100 µM (inactive) | > 100 µM (inactive)
10 | C=C(Br)C[N+]12CN3CN(CN(C3)C1)C2 | > 100 µM (inactive) | > 100 µM (inactive) | > 100 µM (inactive) | > 100 µM (inactive) | > 100 µM (inactive) | > 100 µM (inactive) | > 100 µM (inactive) | > 100 µM (inactive) | > 100 µM (inactive) | > 100 µM (inactive) | > 100 µM (inactive) | > 100 µM (inactive) | > 100 µM (inactive) | > 100 µM (inactive) | > 100 µM (inactive) | > 100 µM (inactive) | > 100 µM (inactive) | > 100 µM (inactive) | > 100 µM (inactive) | > 100 µM (inactive)
11 | CNC(=S)NNc1ncnc2c1c(-c1ccc(Cl)cc1)cn2-c1ccc(C)cc1 | 10.9 µM (inactive) | 9.38 µM (inactive) | 8.34 µM (inactive) | 2.81 µM (inactive) | 8.07 µM (inactive) | 13.8 µM (inactive) | 11.4 µM (inactive) | 1.95 µM (inactive) | 10.2 µM (inactive) | 12.9 µM (inactive) | 8.61 µM (inactive) | 2.21 µM (inactive) | 3.13 µM (inactive) | 5.89 µM (inactive) | 17.6 µM (inactive) | 4.67 µM (inactive) | 14.7 µM (inactive) | 8.49 µM (inactive) | 7.71 µM (inactive) | 11.1 µM (inactive)
12 | CCOC(=O)C(=Cc1ccccc1Cl)C(=O)OCC | 1.71 µM (inactive) | 1.75 µM (inactive) | 1.13 µM (inactive) | 1.23 µM (inactive) | 2.02 µM (inactive) | 3.03 µM (inactive) | 1.94 µM (inactive) | 3.21 µM (inactive) | 2.19 µM (inactive) | 1.82 µM (inactive) | 1.12 µM (active) | 0.547 µM (active) | 1.56 µM (inactive) | 2.06 µM (inactive) | 1.84 µM (inactive) | 2.21 µM (inactive) | 1.88 µM (inactive) | 2.64 µM (inactive) | 1.31 µM (inactive) | 1.6 µM (inactive)
13 | CN1CCc2c3n(c4cc(Br)ccc24)[C@H](O)CCCC31 (stereo not given in full) | > 7.52 µM (inactive) | 1.74 µM (inactive) | 1.8 µM (inactive) | 1.85 µM (inactive) | 2.99 µM (inactive) | > 10 µM (inactive) | 1.72 µM (inactive) | 1.6 µM (inactive) | > 9.31 µM (inactive) | 2.25 µM (inactive) | 1.82 µM (inactive) | 1.93 µM (inactive) | 2.4 µM (inactive) | 3.18 µM (inactive) | > 10 µM (inactive) | > 5.86 µM (inactive) | > 5.18 µM (inactive) | > 10 µM (inactive) | 2.38 µM (inactive) | > 7.16 µM (inactive)
14 | N#Cc1c(N)nc2[nH]nc(N)c2c1-c1ccccc1 | 3.56 µM (inactive) | 3.89 µM (inactive) | 6.93 µM (inactive) | 11.2 µM (inactive) | 3.2 µM (inactive) | 7.74 µM (inactive) | 14.2 µM (inactive) | 4.28 µM (inactive) | 10.2 µM (inactive) | 21.1 µM (inactive) | 6.04 µM (inactive) | > 20.4 µM (inactive) | > 24.3 µM (inactive) | 8.24 µM (inactive) | 16.1 µM (inactive) | 6.58 µM (inactive) | 14.9 µM (inactive) | 0.452 µM (active) | 6.4 µM (inactive) | 5.33 µM (inactive)

Reference: ChEMBL document CHEMBL1201862, “PubChem BioAssay data set” (2004)
